Measurements: PMC4971072, “Chemically Homogenous Compounds with Antagonistic Properties at All α1-Adrenoceptor Subtypes but not β1-Adrenoceptor Attenuate Adrenaline-Induced Arrhythmia in Rats” (Frontiers in Pharmacology, 2016)
pKi: −log10 of the molar value. Marks after values point to notes of the source that are not given here.

Assays:
[1] = tested on: blood pressure in normotensive rats; assay: Influence on blood pressure in normotensive rats; type: in vivo, rat; set-up: Systolic pressure / Diastolic pressure: unit not given beside the values; conditions: for Diastolic pressure / Systolic pressure: anesthetized normotensive rats; for Diastolic pressure / Systolic pressure / reduction of diastolic blood pressure / reduction of systolic blood pressure: lowest hypotensive dose i.p.; for lowest hypotensive dose / reduction of diastolic blood pressure / reduction of systolic blood pressure: normotensive rats; for lowest hypotensive dose: lowest dose significantly lowering systolic and diastolic blood pressure; for reduction of diastolic blood pressure / reduction of systolic blood pressure: period of significant effect
Protocol: The tested compounds were administered i.p. after 15 min of stabilization period. The compounds were administered at the dose 10 mg/kg.

[2] = biological target: α1-adrenoceptor; conditions: rat cerebral cortex, [3H]-prazosin; ref Pytka et al. (2015); read-out: Adrenergic receptors Ki α1; cited from earlier work
[3] = tested on: normal ECG in rats; assay: The effect on normal electrocardiogram in rats; type: in vivo, rat; conditions: anesthetized rats, i.p. at ED84
Protocol: The experiment was carried out to exclude the influence of tested compounds on normal ECG. […] The influence on QRS complex, PQ interval, heart rate (RR), and QTc interval was determined.

[4] = biological target: T1, α1A-adrenoceptors (Rattus norvegicus, UniProt P43140); assay: Functional bioassay, isolated rat tail artery, noradrenaline contraction; type: biochemical; conditions: noradrenaline as agonist; for Kb: read-out: pA2 ± S.E.M., α1A (converted)
T1 construct: the middle part of the ventral caudal artery was removed; from tissue; host or cells: isolated rat tail (ventral caudal) artery rings
T1 sequence (P43140 1-466): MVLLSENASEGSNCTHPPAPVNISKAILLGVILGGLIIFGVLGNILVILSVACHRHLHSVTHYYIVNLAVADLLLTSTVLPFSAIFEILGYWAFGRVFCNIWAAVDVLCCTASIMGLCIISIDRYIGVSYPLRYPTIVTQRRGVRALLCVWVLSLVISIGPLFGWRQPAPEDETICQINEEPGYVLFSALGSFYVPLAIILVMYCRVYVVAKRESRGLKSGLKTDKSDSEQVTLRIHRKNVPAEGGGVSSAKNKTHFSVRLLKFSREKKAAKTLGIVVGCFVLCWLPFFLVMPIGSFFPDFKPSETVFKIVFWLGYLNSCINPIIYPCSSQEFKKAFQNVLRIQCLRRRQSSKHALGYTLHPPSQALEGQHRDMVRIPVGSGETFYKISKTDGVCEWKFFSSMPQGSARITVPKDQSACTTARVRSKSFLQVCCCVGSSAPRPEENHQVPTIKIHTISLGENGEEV
Protocol: The isolated artery, cut into ~4 mm long rings, was then horizontally put up between two stainless steel hooks (diameter 0.15 mm). One hook was fastened to the bottom of the chamber and the other to an isometric FDT10-A force displacement transducer (DMT Model 750TOBS, Denmark), linked with Powerlab 4/26 analyzer (ADInstruments), and processed by LabChart 7 software. […] The initial optimal tissues tension was set at 0.75 g. Chloroethylclonidine (3 μM) as the preferential α1B-adrenoreceptor alkylating agent was used during incubation and after 30 min it was completely washed off. Through 100 min of equilibration tissues were stimulated with noradrenaline (1 μM) four times with washing out until the contractile response become constant. Two cumulative concentration-response curves to noradrenaline, at an interval of 60 min, were established on each arterial ring both in the presence and absence of antagonist. The incubation with antagonists went on for 30 min. The experiments were carried out in the constant presence of yohimbine (0.1 μM) and propranolol (1 μM) to block α2- and β-adrenoceptors, respectively in order to minimize the involvement of these adrenoceptors in the response to noradrenaline.
Data are means ± S.E.M. of at least 4 separate experiments. To establish Hill slopes for the agonist concentration–response curves and calculate EC50 values, curves were fitted to all the data by non-linear regression. The EC50 value in the presence and absence of antagonists was used to ascertain the concentration ratio (CR). Schild analysis was performed.

[5] = Control (before administration)

Compound: COc1ccccc1N1CCN(CCOCCOc2c(C)cccc2Cl)CC1.Cl [HBK-15, 1-[(2-chloro-6-methylphenoxy)ethoxyethyl]-4-(2-methoxyphenyl)piperazine hydrochloride]
- Diastolic pressure ([1]; 5 min): 96.3 ± 3.7^c
- Systolic pressure ([1]; 5 min): 121.2 ± 4.8^c
- Diastolic pressure ([1]; 10 min): 92.0 ± 4.3^c
- Systolic pressure ([1]; 10 min): 116.3 ± 6.0^c
- Diastolic pressure ([1]; 20 min): 88.5 ± 3.5^c
- Systolic pressure ([1]; 20 min): 112.0 ± 5.5^c
- Diastolic pressure ([1]; 30 min): 88.3 ± 2.9^c
- Systolic pressure ([1]; 30 min): 112.2 ± 4.2^c
- Diastolic pressure ([1]; 40 min): 91.0 ± 3.2^c
- Systolic pressure ([1]; 40 min): 112.5 ± 4.4^c
- Diastolic pressure ([1]; 50 min): 90.2 ± 2.7^c
- Systolic pressure ([1]; 50 min): 113.2 ± 3.7^c
- Diastolic pressure ([1]; 60 min): 93.0 ± 1.2^c
- Systolic pressure ([1]; 60 min): 117.3 ± 3.0^c
- Diastolic pressure [1, 5]: 110.3 ± 2.2
- Systolic pressure [1, 5]: 139.0 ± 2.7
- lowest hypotensive dose [1]: 5.0 mg/kg
- reduction of diastolic blood pressure [1]: 13−20%
- reduction of systolic blood pressure [1]: 13−19%
- pKi [2]: 7.88
- influence on ECG parameters (PQ interval, QRS complex, QTc interval) [3]: did not influence the ECG parameters
- Beats/min (ECG) ([3]; 0 min (initial values)): 353.8 ± 10.2 Beats/min
- PQ (ECG) ([3]; 0 min (initial values)): 48.7 ± 1.0 ms
- QRS (ECG) ([3]; 0 min (initial values)): 25.7 ± 0.7 ms
- QT (ECG) ([3]; 0 min (initial values)): 87.3 ± 1.4 ms
- QTc (ECG, Bazett) ([3]; 0 min (initial values)): 212.0 ± 5.0 ms
- Beats/min (ECG) ([3]; 5 min): 365.4 ± 15.3 Beats/min
- PQ (ECG) ([3]; 5 min): 48.4 ± 0.5 ms
- QRS (ECG) ([3]; 5 min): 26.3 ± 0.9 ms
- QT (ECG) ([3]; 5 min): 86.5 ± 1.3 ms
- QTc (ECG, Bazett) ([3]; 5 min): 213.6 ± 7.0 ms
- Beats/min (ECG) ([3]; 10 min): 350.8 ± 10.5 Beats/min
- PQ (ECG) ([3]; 10 min): 48.2 ± 1.0 ms
- QRS (ECG) ([3]; 10 min): 26.1 ± 1.1 ms
- QT (ECG) ([3]; 10 min): 87.2 ± 2.0 ms
- QTc (ECG, Bazett) ([3]; 10 min): 211.3 ± 6.2 ms
- Beats/min (ECG) ([3]; 15 min): 333.9 ± 12.4 Beats/min
- PQ (ECG) ([3]; 15 min): 46.6 ± 0.9 ms
- QRS (ECG) ([3]; 15 min): 25.6 ± 1.2 ms
- QT (ECG) ([3]; 15 min): 87.5 ± 2.0 ms
- QTc (ECG, Bazett) ([3]; 15 min): 207.1 ± 6.8 ms
- Beats/min (ECG) ([3]; 20 min): 327.6 ± 20.3 Beats/min
- PQ (ECG) ([3]; 20 min): 47.6 ± 0.5 ms
- QRS (ECG) ([3]; 20 min): 26.3 ± 0.5 ms
- QT (ECG) ([3]; 20 min): 87.2 ± 0.6 ms
- QTc (ECG, Bazett) ([3]; 20 min): 203.7 ± 7.2 ms
- Beats/min (ECG) ([3]; 30 min): 340.1 ± 17.7 Beats/min
- PQ (ECG) ([3]; 30 min): 46.1 ± 0.3 ms
- QRS (ECG) ([3]; 30 min): 26.4 ± 0.9 ms
- QT (ECG) ([3]; 30 min): 86.7 ± 1.1 ms
- QTc (ECG, Bazett) ([3]; 30 min): 206.4 ± 7.9 ms
- Beats/min (ECG) ([3]; 40 min): 339.5 ± 20.4 Beats/min
- PQ (ECG) ([3]; 40 min): 46.1 ± 0.7 ms
- QRS (ECG) ([3]; 40 min): 28.0 ± 0.9 ms
- QT (ECG) ([3]; 40 min): 87.0 ± 1.5 ms
- QTc (ECG, Bazett) ([3]; 40 min): 206.5 ± 6.6 ms
- Beats/min (ECG) ([3]; 50 min): 350.1 ± 17.9 Beats/min
- PQ (ECG) ([3]; 50 min): 47.5 ± 0.7 ms
- QRS (ECG) ([3]; 50 min): 26.1 ± 1.2 ms
- QT (ECG) ([3]; 50 min): 88.2 ± 0.8 ms
- QTc (ECG, Bazett) ([3]; 50 min): 212.7 ± 6.9 ms
- Beats/min (ECG) ([3]; 60 min): 351.8 ± 15.0 Beats/min
- PQ (ECG) ([3]; 60 min): 48.0 ± 1.1 ms
- QRS (ECG) ([3]; 60 min): 26.3 ± 0.5 ms
- QT (ECG) ([3]; 60 min): 88.5 ± 2.2 ms
- QTc (ECG, Bazett) ([3]; 60 min): 213.9 ± 7.2 ms
- Schild slope ± S.E.M., α1A [4]: 1.01 ± 0.18
- Kb [4]: 19.5 nM

Compound: COc1ccccc1N1CCN(CCOCCOc2c(C)cccc2C)CC1.Cl [HBK-14, 1-[(2,6-dimethylphenoxy)ethoxyethyl]-4-(2-methoxyphenyl)piperazine hydrochloride]
- Diastolic pressure ([1]; 5 min): 105.2 ± 6.1
- Systolic pressure ([1]; 5 min): 135.2 ± 7.3
- Diastolic pressure ([1]; 10 min): 103.0 ± 5.8
- Systolic pressure ([1]; 10 min): 131.2 ± 6.8^c
- Diastolic pressure ([1]; 20 min): 97.3 ± 6.0^c
- Systolic pressure ([1]; 20 min): 127.3 ± 6.6^c
- Diastolic pressure ([1]; 30 min): 95.2 ± 6.1^c
- Systolic pressure ([1]; 30 min): 125.3 ± 7.0^c
- Diastolic pressure ([1]; 40 min): 92.3 ± 6.2^c
- Systolic pressure ([1]; 40 min): 124.2 ± 7.0^c
- Diastolic pressure ([1]; 50 min): 94.0 ± 5.8^c
- Systolic pressure ([1]; 50 min): 127.3 ± 6.3^c
- Diastolic pressure ([1]; 60 min): 98.0 ± 5.1^c
- Systolic pressure ([1]; 60 min): 128.2 ± 5.4^c
- Diastolic pressure [1, 5]: 106.7 ± 4.3
- Systolic pressure [1, 5]: 138.3 ± 6.8
- lowest hypotensive dose [1]: 0.625 mg/kg
- reduction of diastolic blood pressure [1]: 9−14%
- reduction of systolic blood pressure [1]: 5−10%
- pKi [2]: 7.64
- influence on ECG parameters (PQ interval, QRS complex, QTc interval) [3]: did not influence the ECG parameters
- Beats/min (ECG) ([3]; 0 min (initial values)): 366.0 ± 10.8 Beats/min
- PQ (ECG) ([3]; 0 min (initial values)): 47.1 ± 1.1 ms
- QRS (ECG) ([3]; 0 min (initial values)): 26.1 ± 0.7 ms
- QT (ECG) ([3]; 0 min (initial values)): 85.8 ± 1.3 ms
- QTc (ECG, Bazett) ([3]; 0 min (initial values)): 211.7 ± 3.2 ms
- Beats/min (ECG) ([3]; 5 min): 369.8 ± 10.0 Beats/min
- PQ (ECG) ([3]; 5 min): 46.0 ± 1.0 ms
- QRS (ECG) ([3]; 5 min): 25.8 ± 0.5 ms
- QT (ECG) ([3]; 5 min): 85.0 ± 4.1 ms
- QTc (ECG, Bazett) ([3]; 5 min): 209.2 ± 8.3 ms
- Beats/min (ECG) ([3]; 10 min): 367.0 ± 9.9 Beats/min
- PQ (ECG) ([3]; 10 min): 46.3 ± 0.9 ms
- QRS (ECG) ([3]; 10 min): 27.6 ± 1.0 ms
- QT (ECG) ([3]; 10 min): 88.7 ± 1.9 ms
- QTc (ECG, Bazett) ([3]; 10 min): 214.8 ± 5.0 ms
- Beats/min (ECG) ([3]; 15 min): 359.8 ± 9.5 Beats/min
- PQ (ECG) ([3]; 15 min): 47.5 ± 1.3 ms
- QRS (ECG) ([3]; 15 min): 27.0 ± 0.6 ms
- QT (ECG) ([3]; 15 min): 89.0 ± 2.4 ms
- QTc (ECG, Bazett) ([3]; 15 min): 212.9 ± 5.7 ms
- Beats/min (ECG) ([3]; 20 min): 358.4 ± 11.4 Beats/min
- PQ (ECG) ([3]; 20 min): 46.3 ± 1.0 ms
- QRS (ECG) ([3]; 20 min): 26.3 ± 0.4 ms
- QT (ECG) ([3]; 20 min): 88.2 ± 2.9 ms
- QTc (ECG, Bazett) ([3]; 20 min): 212.5 ± 4.6 ms
- Beats/min (ECG) ([3]; 30 min): 359.8 ± 9.6 Beats/min
- PQ (ECG) ([3]; 30 min): 48.8 ± 1.9 ms
- QRS (ECG) ([3]; 30 min): 26.7 ± 0.9 ms
- QT (ECG) ([3]; 30 min): 89.6 ± 1.7 ms
- QTc (ECG, Bazett) ([3]; 30 min): 214.1 ± 5.0 ms
- Beats/min (ECG) ([3]; 40 min): 362.6 ± 11.9 Beats/min
- PQ (ECG) ([3]; 40 min): 48.2 ± 2.1 ms
- QRS (ECG) ([3]; 40 min): 26.1 ± 0.4 ms
- QT (ECG) ([3]; 40 min): 89.0 ± 2.1 ms
- QTc (ECG, Bazett) ([3]; 40 min): 214.1 ± 5.2 ms
- Beats/min (ECG) ([3]; 50 min): 361.6 ± 12.6 Beats/min
- PQ (ECG) ([3]; 50 min): 47.3 ± 1.6 ms
- QRS (ECG) ([3]; 50 min): 26.7 ± 1.0 ms
- QT (ECG) ([3]; 50 min): 87.9 ± 1.2 ms
- QTc (ECG, Bazett) ([3]; 50 min): 210.9 ± 5.1 ms
- Beats/min (ECG) ([3]; 60 min): 364.6 ± 11.2 Beats/min
- PQ (ECG) ([3]; 60 min): 48.4 ± 0.9 ms
- QRS (ECG) ([3]; 60 min): 27.5 ± 0.7 ms
- QT (ECG) ([3]; 60 min): 89.5 ± 2.4 ms
- QTc (ECG, Bazett) ([3]; 60 min): 214.1 ± 4.2 ms
- Schild slope ± S.E.M., α1A [4]: 0.97 ± 0.15
- Kb [4]: 10.2 nM
